Assay results taken from ChEMBL document CHEMBL3351608, “2-Phenylindole and Arylsulphonamide: Novel Scaffolds Bactericidal against Mycobacterium tuberculosis” (ACS Med Chem Lett, 2014).
Values after ≈ are worked out from the molar mass of the structure shown.

Legend:
Test in all cases: microbe, parasite or virus in culture
Details in all cases: variant bovis BCG, 3 h
[1] = system: Mycobacterium tuberculosis
[2] = system: Mycobacterium tuberculosis; remark: listed apart in the source
[3] = system: Mycobacterium tuberculosis; remark: listed apart in the source

Structure (SMILES): O=C(N[C@H](CO)[C@H](O)c1ccc([N+](=O)[O-])cc1)C(Cl)Cl [CHLORAMPHENICOL]
- IC50 [1]: 5.6 µg/mL (≈ 17.3 µM)

Structure (SMILES): CO[C@H]1/C=C/O[C@@]2(C)Oc3c(C)c(O)c4c(O)c(c(/C=N/N5CCN(C)CC5)c(O)c4c3C2=O)NC(=O)/C(C)=C\C=C\[C@H](C)[C@H](O)[C@@H](C)[C@@H](O)[C@@H](C)[C@H](OC(C)=O)[C@@H]1C [RIFAMPIN]
- IC50 [1]: 2 µg/mL (≈ 2.43 µM)
- IC50 [2]: 2.9 µg/mL (≈ 3.52 µM)

Structure (SMILES): C[C@@H]1CN(c2c(F)c(N)c3c(=O)c(C(=O)O)cn(C4CC4)c3c2F)C[C@H](C)N1 [SPARFLOXACIN]
- IC50 [1]: 11.4 µg/mL (≈ 29.1 µM)
- IC50 [3]: 16.7 µg/mL (≈ 42.6 µM)
- IC50 [2]: 7.3 µg/mL (≈ 18.6 µM)
